These results are taken from patent US6787125B1, “Compound screening method” (priority 1999, dated 2004).

Data set [1] concerns mutant C. elegans strain with a constitutively pumping pharynx. Briefly: Pharynx pumping assay (calcein-AM fluorescence), screen for inhibitors. Format: in vivo. To be noted: compounds and worms incubated approximately 1 hour, then calcein-AM, one further hour. The source says:
Depending on the specific assay which it is desired to perform, different C. elegans strains can be used. Screens to select for chemical substances inhibiting the pumping rate of the C. elegans pharynx are generally performed with mutant C. elegans strains which have a constitutively pumping pharynx. Wild-type worms can also be used in this screen, but the mutants worms are preferred. […] The selected mutant C. elegans with the constitutively pumping pharynx pumps medium into the gut at a constant rate and reduction/rescue of this phenotype can easily be scored, which facilitates the detection and selection of chemical substances.
(§1) The pumping rate of the pharynx is measured indirectly by adding a marker molecule precursor such as calcein-AM to the medium and measuring the formation of marker dye in the C. elegans gut. Calcein-AM is cleaved by esterases present in the C. elegans gut to release calcein, which is a fluorescent molecule. […] Therefore by measuring the accumulation of calcein in the nematode gut, detectable by fluorescence, it is possible to determine the pumping rate of the pharynx.
(§2) To perform the pharynx pumping screen with calcein-AM, a concentration of between 1 and 100 μM calcein-AM is added into the medium. Preferably 5 to 10 μM calcein-AM is used. Fluorescence is measured using a multi-well plate reader (Victor2, Wallac Oy, Finland) with following settings: Ex/Em=485/530.
160 well known drugs selected from the pharmacopoeia were used in a screen to test the performance of the pharynx pumping method. The drugs tested belong to a variety of categories, which included analgesics, antidiabetics, antiarrythmics, calcium channel blockers, diuretics, cholinesterase inhibitors, proton pump inhibitors and antidepressants.
The drugs were randomly distributed over the wells of two 96-well multi-well plates. The pumping rate of the C. elegans pharynx was measured using calcein-AM as described in Example 2.
In a first assay, the substrate calcein-AM was added to the medium at the same time as the worms and the compounds. The fluorescence was measured after approximately one hour.
In a variation of this protocol, compounds and worms are added to the medium first and incubated for approximately 1 hour. After this incubation period that allowed for the chemical substances to activate or to inhibit the pumping rate of the pharynx, calcein-AM was added. The plates where then further incubated for one hour prior to fluorescence measurement in the microtiter plate reader.

The test system of data set [2] is C. elegans pharynx. In words: Pharynx pumping assay (calcein-AM), strain not specified: dilution series, insecticides, Tocris library. Format: in vivo. To be noted: for effect of compounds of known insecticidal activity on the pharynx pumping rate: FIGS. 18 to 21; for effect on pharynx pumping: general statement. The procedure:
as §1, §2
To determine the sensitivity of the pharynx pumping assay, dilution series were made for some chemical substances. These include the chemicals clomipramine, tamoxifen, BP554, pimazide and thapsigargin. A concentration range was made from less than 1 μM up to 100 μM, and the pumping assay was repeated as described in previous examples.

In another data set the test system is wild-type worms. Briefly: Movement assay (autofluorescence), wild-type worms. Type of data set: in vivo, C. elegans. To be noted: for effect on movement of wild-type worms, compound alone: FIG. 8, 100% represents normal movement of wild-type worms. The procedure:
Advanced multi-well plate readers are able to detect sub-regions of the wells of multi-well plates. By using these plate readers it is possible to take measurements in selected areas of the surface of the wells of the multi-well plates. If the area of measurement is centralized, so that only the middle of the well is measured, a difference in nematode autofluorescence (fluorescence which occurs in the absence of any external marker molecule) or optical density can be observed in the wells containing nematodes that move normally as compared to wells containing nematodes that are defective for movement. For the wells containing the nematodes that move normally, a low level of autofluorescence or optical density will be observed, whilst a high level of autofluorescence or optical density can be observed in the wells that contain the nematodes that are defective in movement. Optical density is measured using a variation of the platelet aggregation assay, which is well known in the art. Using the MRX revelation device from Dynex (USA), optical density can be measured at multiple points per well, showing the precipitation pattern of the nematodes.
This is because the mutant is mutated in the acetylcholine esterases, resulting in high concentrations of acetylcholine in the synapses. Neostigmine, a well known acetylcholine esterase inhibitor, was added to wild-type worms distributed over the wells of a multi-well plate and submitted to the movement assay after approximately 2 hours.
As receptor antagonist, hexamethonium will also result in a decrease of movement, as it prevents proper signalling.
In another experiment, wild-type worms were contacted with inhibitory concentrations of neostigmine to prevent movement. After a small incubation period, various concentrations of hexamethonium were added and the wells were submitted to the movement assay (measurement of autofluorescence). […] At very high concentrations of hexamethonium (although lower than the concentrations shown in last panel) a toxic effect is observed, resulting in a decrease in movement. This toxic effect is probably due to the presence of high concentrations of both neostigmine and hexamethonium.

Data set [3] concerns ace-1; ace-2 double mutant. In words: Movement assay, ace-1; ace-2 double mutant. As to conditions: increasing concentrations of hexamethonium, absence of neostigmine; compared with the neostigmine experiment. Format: in vivo, C. elegans. On the procedure:
An analogous experiment was performed with the ace-1; ace-2 double mutant. In this experiment, increasing concentrations of hexamethonium were added to the wells in the absence of neostigmine.

Data set [4] concerns C. elegans pharynx. As to conditions: Kerr et al.; cited from earlier work.
Setting [5] is: concentration range from less than 1 μM up to 100 μM.

On to `COP(=O)(OC)C(O)C(Cl)(Cl)Cl` (stereo not shown) [Metrifonate], for which the “activity on the pharynx pumping rate found with the variation of the protocol” value (from here on “activity … of the protocol”) in data set [1] is “detection”.
Take `C=C(C)[C@H]1Cc2c(ccc3c2O[C@@H]2COc4cc(OC)c(OC)cc4[C@@H]2C3=O)O1` [Rotenone]: the “effect of compounds of known insecticidal activity on the pharynx pumping rate” value (“effect … on the pharynx pumping rate” for short) with C. elegans pharynx [2] is given as “reduction in the pharynx pumping rate”.
With `C[N+](C)(C)CCCCCC[N+](C)(C)C` [hexamethonium, Hexamethonium], in the data set on wild-type worms, the “effect on movement of wild-type worms, compound alone” value is on record as “represses the movement of wild-type worms, but significant less than neostigmine”. Further, the “movement of wild-type worms in presence of inhibitory concentrations of neostigmine” value in the data set with wild-type worms (increasing concentrations of hexamethonium) is given as “more movement”. For the same compound, in the data set on wild-type worms (very high concentrations of hexamethonium together with neostigmine), the “toxic effect in movement assay” value was “toxic effect”. Further, the “movement of ace-1; ace-2 double mutant” value in data set [3] is “comparable”.
For the compound `c1ccc(-c2cnc(-c3ccccc3)o2)cc1` [2,5-diphenyloxazole], in the data set with C. elegans pharynx [2] (both in wild-type worms and in constitutive pumping worms), the “effect on pumping rate of the pharynx” value is given as “inhibitor of the pumping rate of the pharynx”.
Regarding `ClC1=C(Cl)[C@]2(Cl)[C@@H]3[C@@H]4C[C@@H]([C@H]5O[C@@H]45)[C@@H]3[C@@]1(Cl)C2(Cl)Cl` [Dieldrin], in the data set on C. elegans pharynx [2], the “effect … on the pharynx pumping rate” value is recorded as “reduction in the pharynx pumping rate”.
Take `NCCc1c[nH]c2ccc(O)cc12` [serotonin]: in the data set with C. elegans pharynx [4], the “effect on pumping, seen as fluorescence of GFP-calmodulin” value is on record as “enhancers of pumping”.
Take Ivermectin: in the data set with C. elegans pharynx [4], the “effect on pumping, seen as fluorescence of GFP-calmodulin” value was “inhibitors of pumping”. Also, the “effect … on the pharynx pumping rate” value with C. elegans pharynx [2] is reported as “reduction in the pharynx pumping rate”.
`CN1[C@@H]2CC[C@H]1C[C@@H](OC(=O)C(CO)c1ccccc1)C2` (stereo partly shown) [Atropine]: in data set [1], the “activity … of the protocol” value is “detection”.
As for `CC/C(=C(\c1ccccc1)c1ccc(OCCN(C)C)cc1)c1ccccc1` [Tamoxifen], the “effect on pharynx pumping rate, dose-response curve” value (from here on “effect on pharynx pumping rate”) in the data set on C. elegans pharynx [2] (setting [5]) is reported as “inhibitors”.
With `N=C(N)S/C=C\C(=O)O` [ZAPA], in data set [1], the “activity … of the protocol” value is on record as “detection”.
Regarding `C/C=C(/C)C(=O)O[C@H]1C(C)=C2[C@H]([C@@H]1OC(=O)CCCCCCC)[C@@](C)(OC(C)=O)C[C@H](OC(=O)CCC)[C@@]1(O)[C@H]2OC(=O)[C@@]1(C)O` [Thapsigargin], in the data set with wild-type worms (observation, method not stated), the effect on movement entry is reported as “decreased movement”. The “effect on pharynx pumping rate” value in the data set with C. elegans pharynx [2] (at low concentration) is listed as “enhancement of the pumping”; in the data set with C. elegans pharynx [2] (setting [5]) it was “decrease of the pumping rate”. For the same compound, in the data set on C. elegans pharynx [2], the “effect on pharynx pumping” value is on record as “decrease in the pharynx pumping rate”.
For `C[S+](C)[O-]` [DMSO], the “toxic effect in pharynx pumping dose-response curve” value in the data set with C. elegans pharynx [2] (solvent, at higher concentrations (FIG. 5)) was “toxic effect”.
Consider Picrotoxin, for which the “effect … on the pharynx pumping rate” value in the data set on C. elegans pharynx [2] is “reduction in the pharynx pumping rate”.
With `CN(C)CCCN1c2ccccc2CCc2ccc(Cl)cc21` [Clomipramine], the “effect on pharynx pumping rate” value in the data set with C. elegans pharynx [2] (setting [5]) is on record as “enhancer”.
The same measure, in the same setting: in the case of `c1ccc(N2CCN(CCCOc3ccc4c(c3)OCO4)CC2)cc1` [BP554] it was “inhibitors”.
Regarding `CN1[C@@H]2CC[C@H]1C[C@@H](OC(=O)[C@H](CO)c1ccccc1)C2` [L-Hyoscyamine], the “activity … of the protocol” value in data set [1] is on record as “detection”.
With `CN(C)CCC=C1c2ccccc2COc2ccccc21` [Doxepin], the “effect on pharynx pumping” value in the data set on C. elegans pharynx [2] is on record as “enhancer of pharynx pumping”.
For `CN(C)C(=O)Oc1cccc([N+](C)(C)C)c1` [neostigmine, Neostigmine], the “effect on movement of wild-type worms, compound alone” value in the data set with wild-type worms is “clear decrease in movement”.
